Each block holds one compound with its values, some of them ahead of it.
How the values were obtained:
[1] = target: Bromodomain-containing protein 4 (Homo sapiens, UniProt O60885); experiment: Selectivity interaction (Human bromodomain panel (DSF assay)) EUB0000233b BRD4
[2] = target: T1, Serine/threonine-protein kinase Nek1 (Homo sapiens) (UniProt Q96PY6); experiment: Selectivity interaction (Kinase panel (Eurofins)) EUB0001564a NEK1; settings: at 1 µM
T1 sequence (whole entry): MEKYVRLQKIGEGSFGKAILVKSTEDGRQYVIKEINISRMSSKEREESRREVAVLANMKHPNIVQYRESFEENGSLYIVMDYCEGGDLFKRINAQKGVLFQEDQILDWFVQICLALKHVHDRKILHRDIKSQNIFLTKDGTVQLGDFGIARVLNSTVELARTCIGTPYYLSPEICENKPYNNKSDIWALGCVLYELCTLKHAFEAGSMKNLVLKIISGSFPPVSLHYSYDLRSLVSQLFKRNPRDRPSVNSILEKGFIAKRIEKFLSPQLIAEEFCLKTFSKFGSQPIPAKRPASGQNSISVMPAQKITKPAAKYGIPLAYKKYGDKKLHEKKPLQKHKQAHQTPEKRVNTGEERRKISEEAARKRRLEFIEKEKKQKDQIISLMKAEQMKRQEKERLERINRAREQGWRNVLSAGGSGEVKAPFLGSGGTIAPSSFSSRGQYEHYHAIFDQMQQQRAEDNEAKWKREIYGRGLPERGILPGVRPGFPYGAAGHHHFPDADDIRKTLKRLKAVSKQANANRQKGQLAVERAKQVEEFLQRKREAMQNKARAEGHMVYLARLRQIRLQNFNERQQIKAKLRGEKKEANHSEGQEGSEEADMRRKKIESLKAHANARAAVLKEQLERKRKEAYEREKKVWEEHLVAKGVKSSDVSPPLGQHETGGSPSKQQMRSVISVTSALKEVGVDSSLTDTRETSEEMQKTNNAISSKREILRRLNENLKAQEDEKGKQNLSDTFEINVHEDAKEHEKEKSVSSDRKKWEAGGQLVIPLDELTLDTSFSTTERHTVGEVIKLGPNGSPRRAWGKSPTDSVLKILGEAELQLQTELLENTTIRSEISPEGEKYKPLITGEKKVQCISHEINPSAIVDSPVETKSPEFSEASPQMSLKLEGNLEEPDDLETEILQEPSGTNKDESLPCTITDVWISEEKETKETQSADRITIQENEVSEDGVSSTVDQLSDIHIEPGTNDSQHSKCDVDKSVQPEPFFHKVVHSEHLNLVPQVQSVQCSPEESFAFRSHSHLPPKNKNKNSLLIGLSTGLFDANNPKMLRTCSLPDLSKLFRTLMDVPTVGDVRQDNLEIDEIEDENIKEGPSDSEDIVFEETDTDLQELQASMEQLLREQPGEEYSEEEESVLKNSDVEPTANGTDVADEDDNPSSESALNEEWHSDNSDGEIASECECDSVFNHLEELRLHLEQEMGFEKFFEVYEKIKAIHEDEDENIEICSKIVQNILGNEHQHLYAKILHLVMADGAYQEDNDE

[3] = target: T2, Mitogen-activated protein kinase 13 (Homo sapiens) (UniProt O15264); experiment: Selectivity interaction (KinomeScan (DiscoverX)) EUB0000045b MAPK13
T2 sequence (whole entry): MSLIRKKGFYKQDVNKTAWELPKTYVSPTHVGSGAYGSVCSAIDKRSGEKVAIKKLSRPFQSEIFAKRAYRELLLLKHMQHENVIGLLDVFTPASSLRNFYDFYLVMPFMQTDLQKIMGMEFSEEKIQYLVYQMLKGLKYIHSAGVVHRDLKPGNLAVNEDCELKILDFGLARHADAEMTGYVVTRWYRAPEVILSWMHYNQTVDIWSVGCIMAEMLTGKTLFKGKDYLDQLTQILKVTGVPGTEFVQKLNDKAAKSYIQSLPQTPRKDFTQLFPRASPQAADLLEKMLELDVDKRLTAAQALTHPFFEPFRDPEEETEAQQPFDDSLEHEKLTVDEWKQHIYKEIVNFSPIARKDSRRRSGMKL

[4] = target: Serine/threonine-protein kinase MARK2 (Homo sapiens) (UniProt Q7KZI7); experiment: Selectivity interaction (KinomeScan (DiscoverX)) EUB0000045b MARK2
[5] = target: Mitogen-activated protein kinase 1 (Homo sapiens, UniProt P28482); experiment: Selectivity interaction (KinomeScan (DiscoverX)) EUB0000045b MAPK1
[6] = target: T3, Serine/threonine-protein kinase ULK1 (Homo sapiens) (UniProt O75385); experiment: Selectivity interaction (KinomeScan (DiscoverX)) EUB0000229b ULK1; settings: at 10 µM
T3 sequence (whole entry): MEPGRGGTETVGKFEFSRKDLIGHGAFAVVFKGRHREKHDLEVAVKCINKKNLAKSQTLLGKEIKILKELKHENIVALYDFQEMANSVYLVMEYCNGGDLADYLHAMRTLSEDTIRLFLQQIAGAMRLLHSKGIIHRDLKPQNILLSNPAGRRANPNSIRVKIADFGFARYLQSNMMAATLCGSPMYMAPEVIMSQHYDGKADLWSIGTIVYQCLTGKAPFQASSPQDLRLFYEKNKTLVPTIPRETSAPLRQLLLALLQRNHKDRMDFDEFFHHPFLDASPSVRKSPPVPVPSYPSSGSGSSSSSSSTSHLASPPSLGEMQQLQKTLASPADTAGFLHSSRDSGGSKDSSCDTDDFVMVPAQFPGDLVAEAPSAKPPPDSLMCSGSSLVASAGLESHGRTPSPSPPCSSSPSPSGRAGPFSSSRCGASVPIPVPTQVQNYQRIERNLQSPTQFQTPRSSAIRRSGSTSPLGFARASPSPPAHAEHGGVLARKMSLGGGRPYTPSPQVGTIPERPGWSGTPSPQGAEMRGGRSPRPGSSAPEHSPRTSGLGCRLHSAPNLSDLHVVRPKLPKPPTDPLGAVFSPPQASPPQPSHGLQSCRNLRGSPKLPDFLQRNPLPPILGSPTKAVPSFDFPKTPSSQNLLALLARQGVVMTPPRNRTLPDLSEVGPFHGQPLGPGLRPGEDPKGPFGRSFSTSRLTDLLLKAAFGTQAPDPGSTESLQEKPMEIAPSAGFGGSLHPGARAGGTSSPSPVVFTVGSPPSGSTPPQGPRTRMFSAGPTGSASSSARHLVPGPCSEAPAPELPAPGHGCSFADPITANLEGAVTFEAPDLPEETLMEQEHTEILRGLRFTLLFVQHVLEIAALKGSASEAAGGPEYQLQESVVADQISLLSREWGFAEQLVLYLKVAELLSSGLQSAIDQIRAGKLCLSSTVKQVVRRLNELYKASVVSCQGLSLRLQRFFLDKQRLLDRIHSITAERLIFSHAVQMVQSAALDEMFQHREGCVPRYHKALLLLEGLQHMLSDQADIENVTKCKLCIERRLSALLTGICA

[7] = target: Serine/threonine-protein kinase OSR1 (Homo sapiens) (UniProt O95747); experiment: Selectivity interaction (KinomeScan (DiscoverX)) EUB0000618a OXSR1; settings: at 10 µM
Sequence of Serine/threonine-protein kinase OSR1 (Homo sapiens) (O95747 2-527 limits assumed): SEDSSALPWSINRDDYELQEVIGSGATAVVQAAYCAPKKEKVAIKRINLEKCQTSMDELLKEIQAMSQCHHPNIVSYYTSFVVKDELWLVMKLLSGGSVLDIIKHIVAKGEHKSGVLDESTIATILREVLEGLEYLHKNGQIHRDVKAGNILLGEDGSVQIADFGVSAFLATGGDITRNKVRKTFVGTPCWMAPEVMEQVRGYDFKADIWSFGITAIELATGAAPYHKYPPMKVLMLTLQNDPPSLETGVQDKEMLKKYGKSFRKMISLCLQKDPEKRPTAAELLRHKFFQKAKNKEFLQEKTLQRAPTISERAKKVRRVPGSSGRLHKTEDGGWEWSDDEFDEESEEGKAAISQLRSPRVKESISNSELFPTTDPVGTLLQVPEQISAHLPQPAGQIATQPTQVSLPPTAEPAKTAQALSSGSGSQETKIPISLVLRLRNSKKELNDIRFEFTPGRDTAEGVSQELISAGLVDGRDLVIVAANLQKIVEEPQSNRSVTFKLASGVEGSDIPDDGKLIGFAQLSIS

Sequence of Mitogen-activated protein kinase 1 (P28482 whole entry): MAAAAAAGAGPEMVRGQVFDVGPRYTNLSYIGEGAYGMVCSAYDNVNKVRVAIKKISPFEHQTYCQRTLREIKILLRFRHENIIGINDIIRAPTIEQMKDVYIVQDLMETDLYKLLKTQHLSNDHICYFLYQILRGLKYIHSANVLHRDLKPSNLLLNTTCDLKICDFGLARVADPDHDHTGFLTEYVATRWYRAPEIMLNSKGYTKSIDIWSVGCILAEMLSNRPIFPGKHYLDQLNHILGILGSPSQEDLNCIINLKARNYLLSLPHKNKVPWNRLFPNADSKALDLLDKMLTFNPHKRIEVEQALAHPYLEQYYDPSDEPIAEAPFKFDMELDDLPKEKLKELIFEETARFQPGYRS
Sequence of Serine/threonine-protein kinase MARK2 (Homo sapiens) (Q7KZI7 whole entry): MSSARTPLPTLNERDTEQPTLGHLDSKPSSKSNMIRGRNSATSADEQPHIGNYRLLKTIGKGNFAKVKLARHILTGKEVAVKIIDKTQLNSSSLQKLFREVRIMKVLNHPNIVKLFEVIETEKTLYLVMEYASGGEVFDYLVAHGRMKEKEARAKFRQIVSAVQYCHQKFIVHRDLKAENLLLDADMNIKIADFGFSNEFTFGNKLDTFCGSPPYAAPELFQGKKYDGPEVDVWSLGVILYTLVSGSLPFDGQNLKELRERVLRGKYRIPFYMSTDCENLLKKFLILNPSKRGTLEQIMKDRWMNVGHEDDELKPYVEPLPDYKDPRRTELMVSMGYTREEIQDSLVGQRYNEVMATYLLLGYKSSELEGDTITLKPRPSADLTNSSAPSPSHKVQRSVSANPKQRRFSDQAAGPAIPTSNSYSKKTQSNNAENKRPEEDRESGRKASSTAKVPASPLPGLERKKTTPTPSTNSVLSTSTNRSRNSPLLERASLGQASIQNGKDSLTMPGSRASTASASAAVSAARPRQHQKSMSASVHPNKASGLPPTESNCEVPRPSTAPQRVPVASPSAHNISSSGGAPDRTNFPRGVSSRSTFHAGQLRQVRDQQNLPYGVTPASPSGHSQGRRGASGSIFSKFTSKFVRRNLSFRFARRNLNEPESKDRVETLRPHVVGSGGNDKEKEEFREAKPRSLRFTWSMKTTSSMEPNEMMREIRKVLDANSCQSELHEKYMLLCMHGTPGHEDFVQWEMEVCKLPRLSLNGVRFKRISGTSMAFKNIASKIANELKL

- dTM [1]: < 2 K
SMILES: CN(C)CCCOc1ccc(-c2cc(NCCCn3cccn3)nc(S(C)(=O)=O)n2)cc1

- % of inhibition [2]: 24.4%
SMILES: CC[C@@H](Nc1c(C#N)c(-c2ccc(-c3cccc(C)c3F)cc2)nc2cnccc12)C(=O)O [BAY-091]

SMILES: C=CC(=O)Nc1cc(-n2c(=O)ccc3cnc4ccc(-c5ccc(NS(C)(=O)=O)cc5)cc4c32)ccc1C
- % of control ([3]; at 1 µM): 100%
- % of control ([3]; at 10 µM): 100%
- % of control ([4]; at 1 µM): 94%
- % of control ([4]; at 10 µM): 100%
- % of control ([5]; at 1 µM): 94%
- % of control ([5]; at 10 µM): 100%

SMILES: COc1cc(N(C)c2ccnc3ccc(C(F)(F)F)cc23)cc(OC)c1OC
- % binding [6]: 73%

SMILES: O[C@H]1CC[C@H](Nc2ncc3nc(Nc4c(F)cc(F)cc4F)n([C@H]4CCOC4)c3n2)CC1
- % of control [7]: 100%

Reference: ChEMBL document CHEMBL5465560, “Selectivity Literature for EUbOPEN Chemogenomic Library” (2024)
